Measurements reported in US20230031406A1, “COMPOUNDS AND COMPOSITIONS FOR TREATING CONDITIONS ASSOCIATED WITH NLRP ACTIVITY” (Novartis AG, priority 2018, published 2023).
Read-outs that look alike come from different tables or passages of the source.

Tested on: PMA-differentiated THP-1 cells
Assay: IL-1β production in PMA-differentiated THP-1 cells stimulated with gramicidin (hTHP-1 assay containing 2% fetal bovine serum; Procedures 1 and 2)
Assay type: cell-based, human
Settings: 2% fetal bovine serum
How it was run: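 IL-1β release from PMA-differentiated THP-1 macrophage-like cells was triggered by 5 μM gramicidin for 2 h after 1 h compound exposure, then measured by HTRF.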

[1] = Homo sapiens, THP-1, Table B2, class symbols, read-out: hTHP-1 IC50
[2] = Table B2, class symbols, read-out: hTHP-1 IC50
[3] = Homo sapiens, THP-1, Table B3, hTHP-1 assay, class symbols, read-out: IC50
[4] = Table B1, class symbols, read-out: Average IC50 of compounds in hTHP-1 assay: hTHP-1 IC50

Question: With Cc1c(C2(C)CC2)nc2c(c1NC(=O)N=S(N)(=O)c1cc(C(C)(C)O)cs1)CCC2 (single isomer, unassigned) [Compound 669b, (R) or (S)-4-(2-Hydroxypropan-2-yl)-N′-((3-methyl-2-(1-methylcyclopropyl)-6,7-dihydro-5H-cyclopenta[b]pyridin-4-yl)carbamoyl) thiophene-2-sulfonimidamide] as the compound, how does the IC50 [1] read?
Answer: 5 to 30 µM

Question: For CC1(C)CCc2c1nc1c(c2NC(=O)N=S(N)(=O)c2cnc(C(C)(O)CO)s2)CCC1 (single isomer, unassigned) [Compound 201b, (S, R) or (R, R) or (R, S) or (S, S)-2-(1,2-Dihydroxypropan-2-yl)-N′-((3,3-dimethyl-1,2,3,5,6,7-hexahydrodicyclopenta [b,e]pyridin-8-yl)carbamoyl) thiazole-5-sulfonimidamide], which IC50 [2] is on record?
Answer: 0.04 to 0.2 µM

Question: Which IC50 [3] does the source give for CCn1nc(S(N)(=O)=NC(=O)Nc2c3c(nc4c2CCC4(C)C)CCC3)cc1CO (single isomer, unassigned) [Example 726, (R) or (S)-N′-((3,3-dimethyl-1,2,3,5,6,7-hexahydrodicyclopenta[b,e]pyridin-8-yl)carbamoyl)-1-ethyl-5-(hydroxymethyl)-1H-pyrazole-3-sulfonimidamide] here?
Answer: 0.2 to 1 µM

Question: With CC1(C)CCc2c1nc1c(c2NC(=O)N=[S@@](N)(=O)c2cc([C@@](C)(O)CO)cs2)CCC1 [Example 653, (R)-4-((R)-1,2-dihydroxypropan-2-yl)-N′-((3,3-dimethyl-1,2,3,5,6,7-hexahydrodicyclopenta[b,e]pyridin-8-yl)carbamoyl) thiophene-2-sulfonimidamide] as the compound, how does the IC50 [3] read?
Answer: 0.04 to 0.2 µM

Question: For NS(=O)(=NC(=O)Nc1c2c(nc3c1CCC3)CCC2)c1ccn(CC(F)(F)F)n1 (stereo not shown) [Compound 685, N′-((1,2,3,5,6,7-hexahydrodicyclopenta[b,e]pyridin-8-yl)carbamoyl)-1-(2,2,2-trifluoroethyl)-1H-pyrazole-3-sulfonimidamide], which IC50 [1] is on record?
Answer: 1 to 5 µM

Question: How did the IC50 [1] turn out when CC(C)(O)c1ccc(S(N)(=O)=NC(=O)Nc2c3c(nc4c2CCC4(C)C)CCC3)cn1 (single isomer, unassigned) [Compound 673a, (R) or (S)-N′-((3,3-dimethyl-1,2,3,5,6,7-hexahydrodicyclopenta [b,e]pyridin-8-yl)carbamoyl)-6-(2-hydroxypropan-2-yl)pyridine-3-sulfonimidamide] was run?
Answer: 1 to 5 µM

Question: How did the IC50 [2] turn out when CCc1csc(S(N)(=O)=NC(=O)Nc2c3c(nc4c2CC[C@H]4C)CCC3)c1 (single isomer, unassigned) [Compound 721a, (S) or (R)-4-Ethyl-N′-(((R)-3-methyl-1,2,3,5,6,7-hexahydrodicyclopenta[b, e]pyridin-8-yl)carbamoylithiophene-2-sulfonimidamide] was run?
Answer: 5 to 30 µM

Question: With CC1(C)CCc2c1nc1c(c2NC(=O)N=S(N)(=O)c2ccn(-c3ccccc3)n2)CCC1 (single isomer, unassigned) [Compound 659b, (R) or (S)-N′-((3,3-dimethyl-1,2,3,5,6,7-hexahydrodicyclopenta [b,e]pyridin-8-yl)carbamoyl)-1-phenyl-1H-pyrazole-3-sulfonimidamide] as the compound, how does the IC50 [2] read?
Answer: 0.2 to 1 µM

Question: For CC(C)(O)c1cncc(S(N)(=O)=NC(=O)Nc2c3c(nc4c2CCC4(C)C)CCC3)c1 (stereo not shown) [Compound 684, N′-((3,3-dimethyl-1,2,3,5,6,7-hexahydrodicyclopenta[b,e]pyridin-8-yl)carbamoyl)-5-(2-hydroxypropan-2-yl)pyridine-3-sulfonimidamide], which IC50 [1] is on record?
Answer: 0.2 to 1 µM

Question: With CC(C)c1nc2c(cc1NC(=O)N=[S@@](N)(=O)c1cnc(C(C)(C)O)s1)CCC2 [Compound 601b] as the compound, how does the IC50 [1] read?
Answer: 5 to 30 µM

Question: For NS(=O)(=NC(=O)Nc1c2c(nc3c1CCC3)CCC2)c1nn(C(F)F)cc1F (single isomer, unassigned) [Example 760, (S) or (R)-1-(difluoromethyl)-4-fluoro-N′-((1,2,3,5,6,7-hexahydrodicyclopenta[b,e]pyridin-8-yl)carbamoyl)-1H-pyrazole-3-sulfonimidamide], which IC50 (Homo sapiens, THP-1, Table B4, numeric bounds, read-out: hTHP-1 IC50) is on record?
Answer: > 30 µM

Question: Cc1c(C2CC2)nc2c(c1NC(=O)N=S(N)(=O)c1cc(C(C)(C)O)n(-c3ccccc3)n1)CCC2 (single isomer, unassigned) [Compound 651b, (R) or (S)-N′-((2-cyclopropyl-3-methyl-6,7-dihydro-5H-cyclopenta[b]pyridin-4-yl)carbamoyl)-5-(2-hydroxypropan-2-yl)-1-phenyl-1H-pyrazole-3-sulfonimidamide] was tested. Which IC50 [2] did it give?
Answer: 1 to 5 µM

Question: Which IC50 [1] does the source give for Cc1c(C(F)(F)F)nc2c(c1NC(=O)N=S(N)(=O)c1cnc(C(C)(C)O)s1)CCC2 (stereo not shown) [Compound 661, 2-(2-Hydroxypropan-2-yl)-N′-((3-methyl-2-(trifluoromethyl)-6,7-dihydro-5H-cyclopenta[b]pyridin-4-yl)carbamoyl)thiazole-5-sulfonimidamide] here?
Answer: 1 to 5 µM

Question: Cc1c(C2(F)CC2)nc2c(c1NC(=O)N=[S@@](N)(=O)c1cnc(C(C)(C)O)s1)CCC2 [Example 579, (R)-N′-((2-(1-fluorocyclopropyl)-3-methyl-6,7-dihydro-5H-cyclopenta[b]pyridin-4-yl)carbamoyl)-2-(2-hydroxypropan-2-yl)thiazole-5-sulfonimidamide] was tested. Which IC50 [3] did it give?
Answer: 1 to 5 µM

Question: For Cc1c(C2CC2)nc2c(c1NC(=O)N=S(N)(=O)c1nc(C(C)(C)O)cs1)CCC2 (single isomer, unassigned) [Compound 626b, (R) or (S)-N′-((2-cyclopropyl-3-methyl-6,7-dihydro-5H-cyclopenta[b]pyridin-4-yl)carbamoyl)-4-(2-hydroxypropan-2-yl)thiazole-2-sulfonimidamide], which IC50 [2] is on record?
Answer: 0.04 to 0.2 µM

Question: Which IC50 [1] does the source give for CC(C)(O)c1cc(S(N)(=O)=NC(=O)Nc2c3c(nc4c2CCC4(C)C)CCC3)nn1-c1ccccc1 (single isomer, unassigned) [Compound 663b, (R) or (S)-N′-((3,3-dimethyl-1,2,3,5,6,7-hexahydrodicyclopenta [b,e]pyridin-8-yl)carbamoyl)-5-(2-hydroxypropan-2-yl)-1-phenyl-1H-pyrazole-3-sulfonimidamide] here?
Answer: 1 to 5 µM

Question: Which IC50 [4] does the source give for CC(C)(O)c1csc(S(N)(=O)=NC(=O)Nc2c3c(nc4c2CCC4)CCC3)c1 (single isomer, unassigned) [Compound 155a, (R) or (S)-N′-((1,2,3,5,6,7-hexahydrodicyclo-penta[b,e]pyridin-8-yl)carbamoyl)-4-(2-hydroxypropan-2-yl)thiophene-2-sulfonimidamide] here?
Answer: 0.04 to 0.2 µM

Question: With Cc1c(C2CC2)nc(C2CC2)c(C)c1NC(=O)N=S(N)(=O)c1cc(C(C)(C)O)cs1 (single isomer, unassigned) [Compound 612a, (S) or (R)-N′-((2,6-dicyclopropyl-3,5-dimethylpyridin-4-yl)carbamoyl)-4-(2-hydroxypropan-2-yl)thiophene-2-sulfonimidamide] as the compound, how does the IC50 (Homo sapiens, THP-1, Table B2, numeric bounds, read-out: hTHP-1 IC50) read?
Answer: > 30 µM

Question: CC(C)(O)c1sc(S(N)(=O)=NC(=O)Nc2c3c(nc4c2CCC4)CCC3)cc1Cl (stereo not shown) [Compound 688, 4-Chloro-N′-((1,2,3,5,6,7-hexahydrodicyclopenta[b, e]pyridin-8-yl)carbamoyl)-5-(2-hydroxypropan-2-yl)thiophene-2-sulfonimidamide] was tested. Which IC50 [1] did it give?
Answer: 1 to 5 µM

Question: How did the IC50 (Homo sapiens, THP-1, Table B1, numeric bounds, read-out: Average IC50 of compounds in hTHP-1 assay: hTHP-1 IC50) turn out when CC1CCc2c1nc1c(c2NC(=O)N=S(N)(=O)c2ncc(C(C)(C)O)s2)CCC1 (single isomer, unassigned) [Compound 140bb, (S,R) or (S,S)-5-(2-hydroxypropan-2-yl)-N′-((3-methyl-1,2,3,5,6,7-hexa-hydrodicyclo-penta[b,e]pyridin-8-yl)carbamoyl)thiazole-2-sulfonimidamide] was run?
Answer: > 30 µM

Question: For CC(C)n1cc(F)c(S(N)(=O)=NC(=O)Nc2c3c(nc4c2CC[C@H]4C)CCC3)n1 (stereo partly drawn) [Example 739, 4-Fluoro-1-isopropyl-N′-(((R)-3-methyl-1,2,3,5,6,7-hexahydrodicyclopenta[b,e]pyridin-8-yl)carbamoyl)-1H-pyrazole-3-sulfonimidamide], which IC50 (Homo sapiens, THP-1, Table B4, class symbols, read-out: hTHP-1 IC50) is on record?
Answer: 0.008 to 0.04 µM

Question: With CC1CCc2c1nc1c(c2NC(=O)N=S(N)(=O)c2cc(C(C)(C)O)n(-c3ccccc3)n2)CCC1 (single isomer, unassigned) [Compound 664b, (R) or (S)-5-(2-Hydroxypropan-2-yl)-N′-((3-methyl-1,2,3,5,6,7-hexahydrodicyclopenta [b,e]pyridin-8-yl)carbamoyl)-1-phenyl-1H-pyrazole-3-sulfonimidamide] as the compound, how does the IC50 [1] read?
Answer: 1 to 5 µM

Question: How did the IC50 [1] turn out when Cc1c(C(C)C)nc2c(c1NC(=O)N=S(N)(=O)c1sc(C(C)(C)O)cc1F)CCC2 (stereo not shown) [Compound 645, 3 -Fluoro-5-(2-hydroxypropan-2-yl)-N′-((2-isopropyl-3-methyl-6,7-dihydro-5H-cyclopenta[b]pyridin-4-yl)carbamoyl)thiophene-2-sulfonimidamide] was run?
Answer: 0.04 to 0.2 µM

Question: For CC1CCc2c1nc1c(c2NC(=O)N=S(N)(=O)c2sc(C(C)(C)O)nc2CO)CCC1 (single isomer, unassigned) [Compound 168b, (R,R/S) or (S,R/S)-4-(hydroxymethyl)-2-(2-hydroxypropan-2-yl)-N′-((3-methyl-1,2,3,5,6,7-hexa-hydrodicyclopenta[b,e]py-ridin-8-yl)carbamoyl)thia-zole-5-sulfonimidamide], which IC50 [4] is on record?
Answer: 0.2 to 1 µM

Question: Which IC50 (Table B1, numeric bounds, read-out: Average IC50 of compounds in hTHP-1 assay: hTHP-1 IC50) does the source give for CC1CCc2c1nc1c(c2NC(=O)N=S(N)(=O)c2ccc(CN(C)C)cc2)CCC1 (single isomer, unassigned) [Compound 134ab, (S,R) or (S,S)-4-((di-methylamino)methyl)-N′-((3-methyl-1,2,3,5,6,7-hexa-hydrodicyclo-penta[b,e]pyridin-8-yl)carbamoyl)benzene-sulfonimidamide] here?
Answer: > 30 µM
